This note sets out measurements from patent US12398121B2 (Nuvation Bio Inc., priority 2018, dated 2025).

Read-outs that look alike come from different tables or passages of the source.

One experiment concerns the target Human recombinant PARP2 (Homo sapiens, UniProt Q9UGN5). As to the kind of experiment: RBC HotSpot PARP2 radioisotope-based filter binding assay. Format: biochemical. Here is the method: (§1) The following methods are for evaluating the in vitro biology properties of the test articles. • a. RBC HotSpot Poly(ADP-ribose) Polymerases 1 (PARP1) and Poly(ADP-ribose) Polymerases 2 (PARP2) Assays: The assay principle is radioisotope-based filter binding assay where incorporation of radioisotope-labeled NAD^+ into the substrate captured on filter is detected after washout free NAD^+. Data were analyzed using Excel and GraphPad Prism software for IC50 curve fits. Each assay was conducted with PJ34 as a positive control. • i. PARP1 assay: Human recombinant PARP1 at a final concentration of 2.5 nM was combined with histone H4 (20 μM) and test articles at various concentrations in reaction buffer (50 mM Tris-HCL, pH 8.0, 50 mM NaCl, 10 mM MgCl2, 1 mM DTT, 1% DMSO, and 20 μg/mL activated DNA). The solution was inoculated for 20 min at room temperature and the reaction initiated by adding [adenylate-^32P]-Nicotinamide Adenine Dinucleotide, ^32P-NAD^+ at a final concentration of 10 μM. After incubation for 2 hour at room temperature, the reaction mixture was filtered and washed with 0.75% phosphoric acid for radioactivity detection. • ii. PARP2 assay: Human recombinant PARP2 at a final concentration of 2.5 nM was combined with histone H3 (20 μM) and test articles at various concentrations in reaction buffer (50 mM Tris-HCL, pH 8.0, 50 mM NaCl, 10 mM MgCl2, 1 mM DTT, 1% DMSO, and 20 μg/mL activated DNA). The solution was inoculated for 20 min at room temperature and the reaction was initiated by adding [adenylate-^32P]-Nicotinamide Adenine Dinucleotide, ^32P-NAD^+ at a final concentration of 10 μM. After incubation for 2 hour at room temperature, the reaction mixture was filtered and washed with 0.75% phosphoric acid for radioactivity detection. • b. AR binding assay: AR in LNCaP cytosol was used for determining the binding affinity of test articles and the reference compound—progesterone (Sigma, Cat: E2785, St. Louis, MO). IC50s were determined using 8 concentrations/compound. Cytosol was plated at 200 μg/well (100 μL) into a 96-well conical polypropylene plate (Agilent, Cat: 5042-1385, Santa Clara, CA) and mixed with 3 μL of test compound. After adding 100 μL of ^3H-methyltrienolone (PerkinElmer, Cat: NET590250UC, San Jose, CA), the plate was sealed and shaken at 300 rpm at 4° C. for 24 hours. Post incubation, 100 μL of radioligand adsorption buffer containing 10 mM Tris-HCl, pH 7.4; 1.5 mM EDTA; 1 mM DTT; 0.25% charcoal; 0.0025% dextran was added to individual well. Plate was shaken for 15 min at 4′C followed by centrifugation at 3000 rpm for 30 min at 4° C. 150 μL of supernatant was transferred into scint-tube (PerkinElmer, Cat: 6000192) and mixed with 2 mL of Ultima Gold Cocktail (PerkinElmer, Cat: 6013329). Radioactivity was counted using a TriCarb 2910 TR scintillation counter (PerkinElmer). Inhibition of the radioactivity by test articles were calculated using the equation below: % Inhibition=(1−(Assay well−Average_LC)/(Average_HC−Average_LC))×100%.

For another experiment, the target named is T1, AR in LNCaP cytosol (Homo sapiens, UniProt P10275, T878A).
T1 construct: endogenous in cells; host or cells: LNCaP cytosol
T1 sequence (P10275 1-920 T878A): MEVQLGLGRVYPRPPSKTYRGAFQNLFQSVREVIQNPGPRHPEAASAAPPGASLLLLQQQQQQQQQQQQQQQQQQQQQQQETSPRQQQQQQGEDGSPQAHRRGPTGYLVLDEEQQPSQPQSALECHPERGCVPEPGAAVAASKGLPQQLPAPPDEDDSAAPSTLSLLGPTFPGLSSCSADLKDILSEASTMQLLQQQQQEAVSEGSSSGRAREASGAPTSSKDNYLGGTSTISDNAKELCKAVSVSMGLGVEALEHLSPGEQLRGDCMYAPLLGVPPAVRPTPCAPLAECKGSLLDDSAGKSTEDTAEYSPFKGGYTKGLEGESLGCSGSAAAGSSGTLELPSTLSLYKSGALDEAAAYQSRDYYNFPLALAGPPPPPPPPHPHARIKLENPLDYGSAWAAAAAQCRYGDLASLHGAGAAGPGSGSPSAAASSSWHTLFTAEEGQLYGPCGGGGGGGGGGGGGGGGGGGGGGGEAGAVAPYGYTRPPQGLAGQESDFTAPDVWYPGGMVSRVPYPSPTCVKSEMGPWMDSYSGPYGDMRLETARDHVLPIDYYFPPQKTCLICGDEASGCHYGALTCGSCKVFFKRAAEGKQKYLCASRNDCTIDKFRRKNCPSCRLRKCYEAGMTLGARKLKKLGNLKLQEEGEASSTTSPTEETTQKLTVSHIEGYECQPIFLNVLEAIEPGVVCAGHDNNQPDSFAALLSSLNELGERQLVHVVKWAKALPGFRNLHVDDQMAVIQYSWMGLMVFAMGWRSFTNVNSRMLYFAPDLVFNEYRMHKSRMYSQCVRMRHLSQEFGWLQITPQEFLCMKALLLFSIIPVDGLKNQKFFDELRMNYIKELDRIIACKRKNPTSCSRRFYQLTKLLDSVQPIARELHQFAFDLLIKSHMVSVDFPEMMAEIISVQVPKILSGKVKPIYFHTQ
As to the kind of experiment: AR binding assay (3H-methyltrienolone displacement). Here is the method:
as §1
IC50 values were calculated and graphed using the model “log(inhibitor) vs. response—Variable slope” included in GraphPad Prism 5 (San Diego, CA). The Ki values were further calculated using the equation below where [L] was the radioligand concentration (1 nM) using in this study. Kd value was 0.332 nM. Ki=IC50/(1+[L]/Kd) c. AR transactivation: Human AR cloned into a CMV vector backbone was used for the transactivation study. HEK-293 cells were plated at 80,000 cells per well of a 24 well plate in DME+5% csFBS. Twenty four hours later, the cells were transfected using Lipofectamine (Invitrogen, Carlsbad, CA) with 0.25 μg GRE-LUC, 0.01 μg CMV-LUC (renilla luciferase) and 25 ng of the AR in OPTIMEM medium. The cells were treated 24 hrs after transfection with various ligands (10^−12 to 10^−5 M final concentrations) and luciferase assay were performed 48 hours after transfection. […]

Setting [1] is: 2.5 nM enzyme, histone H3, 10 μM 32P-NAD+, read-out: PARP2 IC50.

In general, IC50 refers to the concentration needed to halve the response being measured. The term Ki denotes the equilibrium dissociation constant of an inhibitor or competing ligand from its target.

Sequence of Human recombinant PARP2 (Q9UGN5 whole entry): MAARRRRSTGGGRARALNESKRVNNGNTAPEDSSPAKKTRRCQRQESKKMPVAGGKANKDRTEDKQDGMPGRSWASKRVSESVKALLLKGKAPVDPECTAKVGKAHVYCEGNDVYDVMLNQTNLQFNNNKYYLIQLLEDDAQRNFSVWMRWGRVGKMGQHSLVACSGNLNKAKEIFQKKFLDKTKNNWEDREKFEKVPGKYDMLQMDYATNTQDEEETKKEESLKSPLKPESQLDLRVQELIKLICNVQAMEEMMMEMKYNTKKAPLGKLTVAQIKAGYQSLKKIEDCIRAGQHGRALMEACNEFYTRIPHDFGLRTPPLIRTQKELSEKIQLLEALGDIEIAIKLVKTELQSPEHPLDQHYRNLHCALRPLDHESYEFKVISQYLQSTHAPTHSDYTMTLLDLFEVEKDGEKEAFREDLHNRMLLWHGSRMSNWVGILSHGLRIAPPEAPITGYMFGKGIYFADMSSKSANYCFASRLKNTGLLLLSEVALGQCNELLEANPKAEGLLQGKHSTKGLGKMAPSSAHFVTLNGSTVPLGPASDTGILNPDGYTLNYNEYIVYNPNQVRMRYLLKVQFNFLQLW

For the compound `CC1(C)C(=O)N(c2ccc(C#N)c(C(F)(F)F)c2)C(=S)N1c1ccc(C(=O)NCCCCCCNCc2ccc(-c3[nH]c4cc(F)cc5c4c3CCNC5=O)cc2)c(F)c1` [Compound 1.5, 4-(3-(4-cyano-3-(trifluoromethyl)phenyl)-5,5-dimethyl-4-oxo-2-thioxoimidazolidin-1-yl)-2-fluoro-N-(6-((4-(8-fluoro-1-oxo-2,3,4,6-tetrahydro-1H-azepino[5,4,3-cd]indol-5-yl)benzyl)amino)hexyl)benzamide], the IC50 on Human recombinant PARP2 was 2 nM. This compound returned a Ki on AR in LNCaP cytosol of 291 nM.

Turning to `C[C@]12CCC(=O)C[C@@H]1CC[C@@H]1[C@@H]2CC[C@]2(C)[C@@H](OCC(=O)N3CCN(C(=O)c4cc(Cc5n[nH]c(=O)c6ccccc56)ccc4F)CC3)CC[C@@H]12` [Compound 1.110, 4-(3-(4-(2-((5S,8R,9S,10S,13S,14S,17S)-10,13-dimethyl-3-oxohexadecahydro-1H-cyclopenta[a]phenanthren-17-yloxy)acetyl)piperazine-1-carbonyl)-4-fluorobenzyl)phthalazin-1(2H)-one], the IC50 at Human recombinant PARP2 (setting [1]) is 0.2 nM. The compound further yielded a Ki on AR in LNCaP cytosol of 60 nM.

Take `C[C@](O)(CS(=O)(=O)c1ccc(NCC(=O)N2CCN(C(=O)c3cc(Cc4n[nH]c(=O)c5ccccc45)ccc3F)CC2)cc1)C(=O)Nc1ccc(C#N)c(C(F)(F)F)c1` [Compound 1.98, (R)-N-(4-cyano-3-(trifluoromethyl)phenyl)-3-(4-(2-(4-(2-fluoro-5-((4-oxo-3,4-dihydrophthalazin-1-yl)methyl)benzoyl)piperazin-1-yl)-2-oxoethylamino)phenylsulfonyl)-2-hydroxy-2-methylpropanamide]: the IC50 on Human recombinant PARP2 came out at 0.1 nM. For the same compound, at AR in LNCaP cytosol, the affinity corresponds to a Ki of 181 nM.

As to `CCC(=C(c1ccc(O)cc1)c1ccc(OCCN2CCN(C(=O)c3cc(Cc4n[nH]c(=O)c5ccccc45)ccc3F)CC2)cc1)c1ccccc1` [Compound 2.14, 4-(4-fluoro-3-(4-(2-(4-(1-(4-hydroxyphenyl)-2-phenylbut-1-enyl)phenoxy)ethyl)piperazine-1-carbonyl)benzyl)pthalazin-1(2H)-one], the IC50 on Human recombinant PARP2 (setting [1]) worked out at 12.4 nM.

With `C[C@]12CCC(=O)C[C@@H]1CC[C@@H]1[C@@H]2CC[C@@]2(C)[C@H]1CC[C@@]2(O)CCCN1CCN(C(=O)c2cc(Cc3n[nH]c(=O)c4ccccc34)ccc2F)CC1` [Compound 1.119, 4-(4-fluoro-3-(4-(3-((5S,8R,9S,10S,13S,14S,17R)-17-hydroxy-10,13-dimethyl-3-oxohexadecahydro-1H-cyclopenta[a]phenanthren-17-yl)propyl)piperazine-1-carbonyl)benzyl)phthalazin-1(2H)-one], on Human recombinant PARP2 (setting [1]), the IC50 was 0.3 nM. Moreover, the Ki at AR in LNCaP cytosol stood at 20 nM.

`C[C@]12CCC(=O)C[C@@H]1CC[C@@H]1[C@@H]2CC[C@]2(C)[C@@H](OCCOCC(=O)N3CCN(C(=O)c4cc(Cc5n[nH]c(=O)c6ccccc56)ccc4F)CC3)CC[C@@H]12` [Compound 1.104, 4-(3-(4-(2-(2-((5S,8R,9S,10S,13S,14S,17S)-10,13-dimethyl-3-oxohexadeca hydro-1H-cyclopenta[a]phenanthren-17-yloxy)ethoxy)acetyl)piperazine-1-carbonyl)-4-fluorobenzyl)phthalazin-1(2H)-one]: on Human recombinant PARP2 (setting [1]), the IC50 is 0.3 nM. Moreover, at AR in LNCaP cytosol (Ki=IC50/(1+[L]/Kd), [L] 1 nM, Kd 0.332 nM, read-out: AR Ki), the Ki was 167 nM.

Consider `C[C@](O)(COc1ccc(NCCCCCC(=O)N2CCN(C(=O)c3cc(Cc4n[nH]c(=O)c5ccccc45)ccc3F)CC2)cc1)C(=O)Nc1ccc(C#N)c(C(F)(F)F)c1` [Compound 1.83, (S)-N-(4-cyano-3-(trifluoromethyl)phenyl)-3-(4-(6-(4-(2-fluoro-5-((4-oxo-3,4-dihydrophthalazin-1-yl)methyl)benzoyl)piperazin-1-yl)-6-oxohexylamino)phenoxy)-2-hydroxy-2-methylpropanamide], for which the IC50 on Human recombinant PARP2 (setting [1]) turned out to be 0.3 nM. In addition, the Ki on AR in LNCaP cytosol worked out at 139 nM.

As for `O=C(c1ccc(OCCN2CCN(C(=O)c3cc(Cc4n[nH]c(=O)c5ccccc45)ccc3F)CC2)cc1)c1c(-c2ccc(O)cc2)sc2cc(O)ccc12` [Compound 2.13, 4-(4-fluoro-3-(4-(2-(4-(6-hydroxy-2-(4-hydroxyphenyl)benzo[b]thiophene-3-carbonyl)phenoxy)ethyl)piperazine-1-carbonyl)benzyl)phthalazin-1(2H)-one], the IC50 on Human recombinant PARP2 (setting [1]) was found to be 0.5 nM.

Consider `CN(CCCCCC(=O)N1CCN(C(=O)c2cc(Cc3n[nH]c(=O)c4ccccc34)ccc2F)CC1)CCOc1ccc(C(=O)c2c(-c3ccc(O)cc3)sc3cc(O)ccc23)cc1` [Compound 2.4, 4-(4-fluoro-3-(4-(6-((2-(4-(6-hydroxy-2-(4-hydroxyphenyl)benzo[b]thiophene-3-carbonyl)phenoxy)ethyl)(methyl)amino)hexanoyl)piperazine-1-carbonyl)benzyl)phthalazin-1(2H)-one], for which the IC50 at Human recombinant PARP2 (setting [1]) was found to be 0.3 nM.

Consider `C[C@]12CCC(=O)C[C@@H]1CC[C@@H]1[C@@H]2CC[C@@]2(C)[C@H]1CC[C@@]2(O)CCC(=O)N1CCN(C(=O)c2cc(Cc3n[nH]c(=O)c4ccccc34)ccc2F)CC1` (stereo in doubt) [Compound 1.117, 4-(4-fluoro-3-(4-(3-((5S,8R,9S,10S,13S,14S,17R)-17-hydroxy-10,13-dimethyl-3-oxohexadecahydro-1H-cyclopenta[a]phenanthren-17-yl)propanoyl)piperazine-1-carbonyl)benzyl)phthalazin-1(2H)-one], for which, on Human recombinant PARP2 (setting [1]), the IC50 came out at 0.1 nM. This compound also had a Ki on AR in LNCaP cytosol of 60 nM.

On to `CC1(C)C(=O)N(c2ccc(C#N)c(C(F)(F)F)c2)C(=S)N1c1ccc(C(=O)NCCCCCC(=O)N2CCN(C(=O)c3cc(Cc4n[nH]c(=O)c5ccccc45)ccc3F)CC2)c(F)c1` [Compound 1.1, 4-(3-(4-cyano-3-(trifluoromethyl)phenyl)-5,5-dimethyl-4-oxo-2-thioxoimidazolidin-1-yl)-2-fluoro-N-(6-(4-(2-fluoro-5-((4-oxo-3,4-dihydrophthalazin-1-yl)methyl)benzoyl)piperazin-1-yl)-6-oxohexyl)benzamide], for which, on Human recombinant PARP2, the IC50 was determined as 0.2 nM.
